Experiments:
[1] = test system: Bell's Palsy; experiment: Example 1: treatment of person suffering from Bell's Palsy; assay type: in vivo, human; conditions: 60 mg/day prednisone therapy alone, two weeks
Experimental: The patient, a person was diagnosed by their doctor after claiming they are suffering from unexplained facial weakness. The patient's doctor diagnosed the patient as suffering from Bell's Palsy. […] Two weeks after administration, the patient is co-administered a single dose of IVIG at 2 g/kg and 60 mg prednisone and Bell's Palsy related symptoms the patient suffered from are reduced by 70% within two weeks from the co-administration.

[2] = test system: Bell's Palsy; experiment: Example 2: treatment of a person suffering from Bell's Palsy; assay type: in vivo, human; conditions: 60 mg/day prednisone therapy alone for a month
Experimental: The patient, a person is diagnosed by their doctor as suffering from Bell's Palsy. […] The patient is then administered IVIG at 2 g/kg and 60 mg prednisone. Within three weeks, the Bell's Palsy is resolved by about 80%. The patient is then administered a second dose of IVIG at 2 g/kg and 60 mg. prednisone. Within two weeks, the patient is resolved by about 95%.

[3] = test system: Bell's Palsy; conditions: prednisolone 60 mg per day for 5 days then reduced by 10 mg per day, and 50 mg per day for 10 days; cited from earlier work

Compound | reduction in the symptoms of Bell's Palsy [1] | resolution of Bell's Palsy [2] | outcome in patients with Bell's palsy [3] | time to complete recovery [3]
C[C@]12C=CC(=O)C=C1CC[C@@H]1[C@@H]2C(=O)C[C@@]2(C)[C@H]1CC[C@]2(O)C(=O)CO [prednisone] | no reduction | did not resolve |  | 
C[C@]12C=CC(=O)C=C1CC[C@@H]1[C@@H]2[C@@H](O)C[C@@]2(C)[C@H]1CC[C@]2(O)C(=O)CO [prednisolone] |  |  | improves outcome | shortens the time to complete recovery
